Experimental data as given in PubChem BioAssay AID2060496 (Molecular Pharmacology Branch, DTP, NCI, 2025).
Values joined by “and” are separate entries in the source; they are usually repeats but may differ in a detail not shown here. Equal entries are not always repeated.

Tested on: 276233-004-R-J1-PDC complex spheroid viability
Assay: Anticancer human tumor 276233-004-R-J1-PDC patient-derived colon adenocarcinoma cell line growth inhibition [GQUAD]
Settings: for viability, T/C: stronger effect = lower value; for IC50: curve of compound
Source text: DNA G-quadruplex Stabilizer Agents in Combinations in Complex Spheroids
A high-throughput screen of multi-cell type tumor spheroids was designed to identify active combinations of DNA G-quadruplex stabilizer agents and targeted small molecules. Complex spheroids include a stromal component modeled by human endothelial cells (HUVEC) and fibroblasts modeled by human mesenchymal stem cells (MSCs). The concentration ranges selected for each drug and investigational agent were based upon clinically achievable concentrations if the clinical Cmax of the agent was known.
Compounds. The drugs and investigational agents: pidnarulex (CX-5461; NSC782164), APTO-253 (NSC789042), BRACO-19 (NSC847499), peposertib (NSC802822), ceralasertib (NSC780249), elimusertib (NSC800525), camonsertib (NSC841442), AZD-1390 (NSC803789), olaparib (NSC753686), talazoparib (NSC767125), ART-558 (NSC835418), sotorasib (NSC818433), MRTX-1133 (NSC836407), SN-38 (NSC673596), topotecan (NSC609699), etoposide (NSC141540), doxorubicin (NSC123127), gemcitabine (NSC613327), 5-fluorouracil (NSC19893), paclitaxel (NSC125973), vemurafenib (NSC761431), panobinostat (NSC761190), R-306465 (JNJ-16241199; NSC773264), adavosertib (NSC754352), TP-3654 (NSC805149), carboplatin (NSC241240), KSQ-4279 (NSC840948), and staurosporine (NSC755774) were obtained from the National Cancer Institute (NCI) Developmental Therapeutics Program Chemical Repository (34). The FDA-approved anticancer drug set is available from the NCI Developmental Therapeutics Program. […] The stock solutions were prepared in dimethyl sulfoxide (DMSO, Sigma-Aldrich, St. Louis, MO, cat. D2650) at 800-fold the tested concentration and stored at -70 degrees C prior to their use. All drugs and investigational agents were tested over a range starting from a high concentration at or near the clinical Cmax and decreasing in half-log increments. If the clinical Cmax for an agent had not been determined, the highest concentration tested was 10 microM.
2.3 Cell Culture. All cells were maintained in an incubator at 37 degrees C and 5% CO2 with 95% humidity. The PDC lines were cultured according to standard operating procedures established by the NCI PDMR. All PDCs were thawed and cultured in Matrigel-coated flasks prepared with a working solution of 1X Ham's F-12 nutrient mix, without supplementation (Invitrogen, cat. 11765054), 100 U/mL penicillin-streptomycin (Invitrogen, cat. 15140122), and 2.5% Matrigel (Corning Inc., cat. 354248) for the first three passages. The 857933-349-R-J2-PDC line was cultured in 6C/Colon 1B media, which includes advanced DMEM/F-12 (Thermo Fisher Scientific, cat. 12634028), 10 mM HEPES (Thermo Fisher Scientific, cat. 15630080), 1X GlutaMAX supplement (Thermo Fisher Scientific, cat. 35050061), 0.1 mg/mL primocin (InvivoGen, cat. ant-pm-2), 10% defined fetal bovine serum, heat inactivated (HyClone Laboratories Inc., cat. SH30070.03HI), 50% L-WRN conditioned media (ATCC, cat. CRL-3276), 1.25 mM N-Acetyl-L-cysteine (Sigma-Aldrich, cat. A9165), 10 mM nicotinamide (Sigma-Aldrich, cat. N0636), 1X B-27 supplement (Thermo Fisher Scientific, cat. 17504044), 1X N-2 supplement (Thermo Fisher Scientific, cat. 17502048), 10 microM Y-27632 dihydrochloride (Tocris Bioscience, cat. 1254), and 50 ng/mL human EGF recombinant protein (Thermo Fisher Scientific, cat. PHG0311). The 485176-168-R4-J1-PDC line was cultured in Panc media, which includes all 6C/Colon 1B media components plus 100 ng/mL human FGF-10 (Thermo Fisher Scientific, cat. 100-26), 500 nM SB-431542 (Selleckchem, cat. S1067), and gastrin (Tocris, cat. 3006).
[…]
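Also: spheroids exposed to drugs for seven days.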
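For viability, T/C in this document: 100% = DMSO vehicle control viability.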

Compound	viability, T/C (compound 0.0316 µM)	viability, T/C (compound 0.1 µM)	viability, T/C (compound 0.316 µM)	viability, T/C (compound 1 µM)	viability, T/C (compound 3.16 µM)	viability, T/C (compound 10 µM)	IC50
CC1COCCN1c1cc(-c2ccnn2C)c2ccnc(-c3ccn[nH]3)c2n1 (stereo unspecified)	99.9% and 85.8% and 70.3%	85.9% and 83.5% and 72.1%	83.8% and 82.2% and 60.7%	68.7% and 82.9% and 70.1%	77.7% and 57.3% and 56.7%	58.9% and 53.9% and 47.2%	> 10 µM and 7.41 µM
O=C(c1cc(Cc2n[nH]c(=O)c3ccccc23)ccc1F)N1CCN(C(=O)C2CC2)CC1	98.7% and 82% and 96.7%	74.7% and 85.1% and 87.7%	99.8% and 90.6% and 79%	93.7% and 103% and 84.8%	82.7% and 91.9% and 88%	94.1% and 79.9% and 97.9%	> 10 µM
CC(=O)O[C@H]1C(=O)[C@@]2(C)[C@H]([C@H](OC(=O)c3ccccc3)[C@]3(O)C[C@H](OC(=O)[C@H](O)[C@@H](NC(=O)c4ccccc4)c4ccccc4)C(C)=C1C3(C)C)[C@]1(OC(C)=O)CO[C@@H]1C[C@@H]2O	84.1% and 80.2% and 104%	96.1% and 82.8% and 71.2%	82.9% and 80.8% and 85.8%	87.2% and 95.1% and 88.6%	99.2% and 101% and 86.8%	76.9% and 80.1% and 86.2%	> 10 µM
O=c1[nH]cc(F)c(=O)[nH]1	98.2% and 108% and 102%	71.6% and 81.3% and 94.7%	89.2% and 90.9% and 103%	88.4% and 88.3% and 106%	84.1% and 90.3% and 83.7%	101% and 97.9% and 113%	> 10 µM
C=CCn1c(=O)c2cnc(Nc3ccc(N4CCN(C)CC4)cc3)nc2n1-c1cccc(C(C)(C)O)n1	108% and 106% and 77.9%	92.1% and 90.6% and 74.1%	70.8% and 73.3% and 90.3%	63.5% and 69.4% and 61.4%	73.4% and 78.4% and 80.3%	65.8% and 87.4% and 92.2%	> 10 µM
C=CC(=O)N1CCN(c2nc(=O)n(-c3c(C)ccnc3C(C)C)c3nc(-c4c(O)cccc4F)c(F)cc23)C(C)C1 (stereo unspecified)	107% and 92.8% and 91.6%	89.2% and 119% and 77.8%	102% and 80.8% and 89%	96.7% and 101% and 87.3%	98.4% and 92.5% and 85.8%	91.2% and 93.1% and 84.2%	> 10 µM
CCCS(=O)(=O)Nc1ccc(F)c(C(=O)c2c[nH]c3ncc(-c4ccc(Cl)cc4)cc23)c1F	85% and 77.1% and 99.3%	91.3% and 96.2% and 84.7%	85.8% and 98.6% and 111%	97.5% and 83.7% and 96.3%	79.2% and 91% and 121%	56.8% and 59.4% and 76.4%	> 10 µM
CC1COCCN1c1cc(C2(S(C)(=N)=O)CC2)nc(-c2ccnc3[nH]ccc23)n1 (stereo unspecified)	103% (2×) and 89.1%	92.5% and 89% and 63%	96.4% and 75.8% and 79.6%	93.7% and 76% and 77.1%	89.8% and 75.2% and 74.9%	68.3% and 69.6% and 60.1%	> 10 µM
